{"source": "paper PMC3220813", "about": "(Cancer Chemotherapy and Pharmacology, 2011)", "key": {"[1]": {"system": "purified MEK1", "settings": "cited from earlier work"}, "[2]": {"assay_type": "in vivo, human", "settings": "for AUC0–t, geometric mean / AUC, geometric mean / Cmax, geometric mean / t1/2, geometric mean / tmax, median / CL/F, geometric mean / Vd/F: PP population; for time up to which measurable plasma concentrations were observed: both fed and fasted periods; for Vd/F: Vz/F, geometric mean"}, "[3]": {"settings": "cited from earlier work"}, "[4]": {"settings": "cited from earlier work; for increase in drug exposure with a high-fat meal: CI-1040 at 800 and 1,600 mg"}, "[5]": {"settings": "in vivo; cited from earlier work"}, "[6]": {"test": "Classification by permeability and solubility", "settings": "tentative; class IV = low permeability and low solubility"}, "[7]": {"test": "Safety and tolerability", "assay_type": "in vivo, human"}, "[8]": {"system": "advanced solid malignancies", "test": "Objective tumor response by RECIST 1.0", "assay_type": "in vivo, human", "settings": "28 evaluable patients, both cutaneous melanoma"}, "[9]": {"system": "Caco-2 cells", "settings": "ref data on file; cited from earlier work"}, "[10]": {"settings": "ref data on file, cited from earlier work"}, "[11]": {"system": "various other kinases, enzymes, receptors, ion channels, and transporters", "settings": "cited from earlier work"}, "[12]": {"settings": "Fasted, metabolite after 75 mg selumetinib"}, "[13]": {"settings": "Fed, metabolite after 75 mg selumetinib"}, "[14]": {"settings": "AEs ≥10% of patients, safety population N = 30"}, "[15]": {"settings": "reported in ≥2 patients, safety population, Total (N = 11)"}}, "note": "pIC50: −log10 of the molar value. Where two headings read alike, the source gives them in different places. Marks after values point to notes of the source that are not given here.", "data": [{"smiles": "Cn1cnc2c(F)c(Nc3ccc(Br)cc3Cl)c(C(N)=O)cc21", "note": "[selumetinib amide]", "values": [{"measurement": "less active than selumetinib", "setting": "[1]", "value": "up to 50 fold"}]}, {"smiles": "O=C(NOCCO)c1cc2nc[nH]c2c(F)c1Nc1ccc(Br)cc1Cl", "note": "[N-desmethyl-selumetinib]", "values": [{"measurement": "greater potency for MEK1 inhibition than selumetinib", "setting": "[1]; in vitro", "value": "3- to 5 fold"}, {"measurement": "AUC0–t, geometric mean", "setting": "[2]; [12]", "value": 376.4, "unit": "ng/h/mL"}, {"measurement": "AUC, geometric mean", "setting": "[2]; [12]", "value": 418.4, "unit": "ng·h/mL"}, {"measurement": "Cmax, geometric mean", "setting": "[2]; [12]", "value": 73.9, "unit": "ng/mL"}, {"measurement": "t1/2, geometric mean", "setting": "[2]; [12]", "value": 7.7, "unit": "h"}, {"measurement": "tmax, median", "setting": "[2]; [12]", "value": "1.50^a h"}, {"measurement": "AUC0–t, geometric mean", "setting": "[2]; [13]", "value": 282.4, "unit": "ng/h/mL"}, {"measurement": "AUC, geometric mean", "setting": "[2]; [13]", "value": 379.1, "unit": "ng·h/mL"}, {"measurement": "Cmax, geometric mean", "setting": "[2]; [13]", "value": 33.5, "unit": "ng/mL"}, {"measurement": "t1/2, geometric mean", "setting": "[2]; [13]", "value": 6.8, "unit": "h"}, {"measurement": "tmax, median", "setting": "[2]; [13]", "value": "4.0^a h"}, {"measurement": "time up to which measurable plasma concentrations were observed", "setting": "[2]", "value": "up to 24 h"}, {"measurement": "ratio of N-desmethyl-selumetinib to selumetinib (metabolite to parent)", "setting": "[2]; fasted state", "value": 0.07}, {"measurement": "ratio of N-desmethyl-selumetinib to selumetinib (metabolite to parent)", "setting": "[2]; fed state", "value": 0.06}, {"measurement": "delay of median tmax in the fed condition", "setting": "[2]; metabolite after 75 mg selumetinib", "value": "approximately 3 h"}, {"measurement": "AUC relative to parent compound", "setting": "[3]; plasma metabolite exposure", "value": "< 15", "unit": "%"}, {"measurement": "Cmax relative to parent compound", "setting": "[3]; plasma metabolite exposure", "value": "< 15", "unit": "%"}]}, {"smiles": "O=C(NOCC1CC1)c1ccc(F)c(F)c1Nc1ccc(I)cc1Cl", "note": "[CI-1040]", "values": [{"measurement": "increase in drug exposure with a high-fat meal", "setting": "[4]", "value": 4.5, "unit": "fold"}, {"measurement": "MTD and recommended Phase II dose (RP2D)", "setting": "[4]; administered with food", "value": 800, "unit": "mg BID"}]}, {"smiles": "Cn1cnc2c(F)c(Nc3ccc(Br)cc3Cl)c(C(=O)NOCCO)cc21", "note": "[selumetinib]", "values": [{"measurement": "route of excretion", "setting": "[5]", "value": "predominantly via the feces"}, {"measurement": "class (permeability/solubility classification)", "setting": "[6]", "value": "tentative class IV"}, {"measurement": "tolerability / safety profile", "setting": "[7]; 75 mg, advanced cancer population", "value": "well tolerated"}, {"measurement": "Abdominal pain, number (%) of patients", "setting": "[7]; [14]", "value": "8 (26.7) Number (%) of patients"}, {"measurement": "Anemia, number (%) of patients", "setting": "[7]; [14]", "value": "7 (23.3) Number (%) of patients"}, {"measurement": "Constipation, number (%) of patients", "setting": "[7]; [14]", "value": "11 (36.7) Number (%) of patients"}, {"measurement": "Diarrhea, number (%) of patients", "setting": "[7]; [14]", "value": "14 (46.7) Number (%) of patients"}, {"measurement": "Dizziness, number (%) of patients", "setting": "[7]; [14]", "value": "8 (26.7) Number (%) of patients"}, {"measurement": "Dyspnoea, number (%) of patients", "setting": "[7]; [14]", "value": "10 (33.3) Number (%) of patients"}, {"measurement": "Edema peripheral, number (%) of patients", "setting": "[7]; [14]", "value": "7 (23.3) Number (%) of patients"}, {"measurement": "Fatigue, number (%) of patients", "setting": "[7]; [14]", "value": "13 (43.3) Number (%) of patients"}, {"measurement": "Headache, number (%) of patients", "setting": "[7]; [14]", "value": "7 (23.3) Number (%) of patients"}, {"measurement": "Nausea, number (%) of patients", "setting": "[7]; [14]", "value": "18 (60.0) Number (%) of patients"}, {"measurement": "Rash, number (%) of patients", "setting": "[7]; [14]", "value": "16 (53.3) Number (%) of patients"}, {"measurement": "Vomiting, number (%) of patients", "setting": "[7]; [14]", "value": "9 (30.0) Number (%) of patients"}, {"measurement": "patients with one or more dose reductions", "setting": "[7]; extension part, 75 mg BD, largely due to AEs (n = 6)", "value": 10, "unit": "patients"}, {"measurement": "patients who died whilst on study", "setting": "[7]; intestinal perforation due to disease progression", "value": 3.3, "unit": "%"}, {"measurement": "patients with grade 4 AEs", "setting": "[7]; not considered causally related to study treatment", "value": 6.7, "unit": "%"}, {"measurement": "patients reporting an AE of grade 3 or higher", "setting": "[7]; overall safety population, 30 patients", "value": 60.0, "unit": "%"}, {"measurement": "Abdominal pain, SAE of ≥CTC grade 3, number (%) of patients", "setting": "[7]; [15]", "value": "2 (6.7) Number (%) of patients"}, {"measurement": "Anemia, SAE of ≥CTC grade 3, number (%) of patients", "setting": "[7]; [15]", "value": "2 (6.7) Number (%) of patients"}, {"measurement": "Constipation, SAE of ≥CTC grade 3, number (%) of patients", "setting": "[7]; [15]", "value": "2 (6.7) Number (%) of patients"}, {"measurement": "Dyspnoea, SAE of ≥CTC grade 3, number (%) of patients", "setting": "[7]; [15]", "value": "3 (10.0) Number (%) of patients"}, {"measurement": "Vomiting, SAE of ≥CTC grade 3, number (%) of patients", "setting": "[7]; [15]", "value": "2 (6.7) Number (%) of patients"}, {"measurement": "partial responses", "setting": "[8]", "value": 7.1, "unit": "%"}, {"measurement": "permeability across Caco-2 cells", "setting": "[9]", "value": "moderate permeability"}, {"measurement": "pIC50", "setting": "[1]; read-out: IC50 against purified MEK1", "value": 7.85}, {"measurement": "delay of median tmax in the presence of food", "setting": "[2]; 75 mg, fed minus fasted", "value": "approximately 2.5 h"}, {"measurement": "CL/F, geometric mean", "setting": "[2]; Fasted", "value": 12.9, "unit": "L/h"}, {"measurement": "CL/F, geometric mean", "setting": "[2]; Fed", "value": 16.0, "unit": "L/h"}, {"measurement": "time up to which measurable plasma concentrations were observed", "setting": "[2]", "value": "up to 48 h"}, {"measurement": "AUC(0-t)", "setting": "[2]; human, plasma, oral, 75 mg", "value": 5640, "unit": "ng·h/mL"}, {"measurement": "Vd/F", "setting": "[2]; human, plasma, oral, 75 mg, Fasted", "value": 175, "unit": "L"}, {"measurement": "Vd/F", "setting": "[2]; human, plasma, oral, 75 mg, Fed", "value": 199, "unit": "L"}, {"measurement": "solubility", "setting": "[10]; pH1", "value": 274, "unit": "µg/mL"}, {"measurement": "solubility", "setting": "[10]; pH 7.4", "value": 3.4, "unit": "µg/mL"}, {"measurement": "total body clearance from plasma after an oral dose (CL/F)", "setting": "[3]; across studied dose range", "value": "12 to 23", "unit": "L/h"}, {"measurement": "volume of distribution at steady state (Vss/F)", "setting": "[3]; across studied dose range", "value": "87 to 126", "unit": "L"}, {"measurement": "terminal elimination half-life (t1/2)", "setting": "[3]; single dose", "value": "5 to 8", "unit": "h"}, {"measurement": "activity against various other kinases, enzymes, receptors, ion channels, and transporters", "setting": "[11]", "value": "did not show significant activity"}]}, {"smiles": "O=C(O)c1ccc(F)c(F)c1Nc1ccc(I)cc1Cl", "note": "[PD-0184264]", "values": [{"measurement": "increase in drug exposure with a high-fat meal", "setting": "[4]", "value": 5, "unit": "fold"}]}]}
